According to patent US9995734B2, “Human T cell line assay for evaluating the immunologic identity of glatiramer acetate preparations” (Mylan Inc., priority 2013, dated 2018):
“And” between values parts separate entries of the source, which are not always exact repeats. Equal values may be shown once.

Tested on: Donor 3 COP T-Cell Lines
Test: ATP proliferation assay (CellTiter Glo), Donor 3 COP T-cell lines, incl. reactivity to non-canonical GA peptides
Assay type: cell-based, human
Conditions: for Reactivity (proliferation), Mean: Day 54 of culture; for Mean, ATP proliferation assay: 10 μg/mL; for Non-Canonical Peptide Non-Reactivity: proliferation <2 times no antigen control; for Non-Canonical Peptide Reactivity: at least one proliferation value >=2 times no antigen control
[1] = T-cell line 165-C7C, 10 μg/mL antigen, autologous B-LCL
[2] = T-cell line 165-C4C, 1 μg/mL antigen, Day 66 of culture, 0 μg/mL 1881
[3] = T-cell line 165-C4C, 3 μg/mL antigen, Day 66 of culture, 0 μg/mL 1881
[4] = T-cell line 165-C4C, 10 μg/mL antigen, Day 66 of culture, 0 μg/mL 1881
[5] = T-cell line 165-C7C, 1.25 μg/mL antigen, autologous B-LCL
[6] = T-cell line 165-C7C, 2.5 μg/mL antigen, autologous B-LCL
[7] = T-cell line 165-C7C, 5 μg/mL antigen, autologous B-LCL
[8] = T-cell line 165-F3C, 1 μg/mL antigen, Day 77 of culture, 0 μg/mL 1563
[9] = T-cell line 165-F3C, 3 μg/mL antigen, Day 77 of culture, 0 μg/mL 1563
[10] = T-cell line 165-F3C, 10 μg/mL antigen, Day 77 of culture, 0 μg/mL 1563
[11] = T-cell line 165-F6C, 1.25 μg/mL antigen, Day 76 of culture, No Antigen value 517
[12] = T-cell line 165-F6C, 2.5 μg/mL antigen, Day 76 of culture, No Antigen value 517
[13] = T-cell line 165-F6C, 5 μg/mL antigen, Day 76 of culture, No Antigen value 517
[14] = T-cell line 165-F6C, 10 μg/mL antigen, Day 76 of culture, No Antigen value 517

FFKNIVTPRTPPPSQGK [MBP]
Reactivity (proliferation), Mean (T-cell line 165-B6C, 3 μg/mL antigen, No Antigen 2358): 2205 RLU | Reactivity (proliferation), Mean (T-cell line 165-B6C, 10 μg/mL antigen, No Antigen 2358): 2268 RLU | Mean, ATP proliferation assay (T-cell line 165-B6C, Day 46, after 3 days): 3216 RLU | Reactivity (proliferation), Mean (T-cell line 165-B6C, 100 μg/mL antigen, No Antigen 2358): 2201 RLU | Reactivity (proliferation), Mean (T-cell line 165-B10C, 3 μg/mL antigen, No Antigen 2234): 2176 RLU | Reactivity (proliferation), Mean (T-cell line 165-B10C, 10 μg/mL antigen, No Antigen 2234): 2320 RLU | Mean, ATP proliferation assay (T-cell line 165-B10C, Day 46, after 3 days): 3003 RLU | Reactivity (proliferation), Mean (T-cell line 165-B10C, 100 μg/mL antigen, No Antigen 2234): 2272 RLU | Mean, ATP proliferation assay (T-cell line 165-C4C, Day 39): 1631 | Proliferation (luminescent ATP assay), Mean [1]: 278 RLU | Mean, ATP proliferation assay (T-cell line 165-C7C, Day 39): 1673 | Mean, ATP proliferation assay (T-cell line 165-D2C, Day 39): 1927 | Reactivity (proliferation), Mean (T-cell line 165-D3C, 3 μg/mL antigen, No Antigen 8319): 8037 RLU | Reactivity (proliferation), Mean (T-cell line 165-D3C, 10 μg/mL antigen, No Antigen 8319): 8656 RLU | Mean, ATP proliferation assay (T-cell line 165-D3C, Day 46, after 3 days): 15482 RLU | Reactivity (proliferation), Mean (T-cell line 165-D3C, 100 μg/mL antigen, No Antigen 8319): 8647 RLU | Reactivity (proliferation), Mean (T-cell line 165-D11C, 3 μg/mL antigen, No Antigen 4571): 4348 RLU | Reactivity (proliferation), Mean (T-cell line 165-D11C, 10 μg/mL antigen, No Antigen 4571): 4301 RLU | Mean, ATP proliferation assay (T-cell line 165-D11C, Day 46, after 3 days): 8406 RLU | Reactivity (proliferation), Mean (T-cell line 165-D11C, 100 μg/mL antigen, No Antigen 4571): 4020 RLU | Reactivity (proliferation), Mean (T-cell line 165-E3C, 3 μg/mL antigen, No Antigen 2797): 2898 RLU | Reactivity (proliferation), Mean (T-cell line 165-E3C, 10 μg/mL antigen, No Antigen 2797): 2658 RLU | Mean, ATP proliferation assay (T-cell line 165-E3C, Day 46, after 3 days): 7662 RLU | Reactivity (proliferation), Mean (T-cell line 165-E3C, 100 μg/mL antigen, No Antigen 2797): 2582 RLU | Reactivity (proliferation), Mean (T-cell line 165-F3C, 3 μg/mL antigen, No Antigen 3150): 3369 RLU | Reactivity (proliferation), Mean (T-cell line 165-F3C, 10 μg/mL antigen, No Antigen 3150): 3115 RLU | Mean, ATP proliferation assay (T-cell line 165-F3C, Day 46, after 3 days): 9849 RLU | Reactivity (proliferation), Mean (T-cell line 165-F3C, 100 μg/mL antigen, No Antigen 3150): 3017 RLU | Reactivity (proliferation), Mean (T-cell line 165-F6C, 3 μg/mL antigen, No Antigen 2189): 1960 RLU | Reactivity (proliferation), Mean (T-cell line 165-F6C, 10 μg/mL antigen, No Antigen 2189): 1977 RLU | Mean, ATP proliferation assay (T-cell line 165-F6C, Day 46, after 3 days): 2214 RLU | Reactivity (proliferation), Mean (T-cell line 165-F6C, 100 μg/mL antigen, No Antigen 2189): 3672 RLU

poly (Glu-Tyr; 1:1) [GT 11]
Non-Canonical Peptide Non-Reactivity (165-B6C): GT 11 | Non-Canonical Peptide Non-Reactivity (165-B10C): GT 11 | Non-Canonical Peptide Non-Reactivity (165-C4C): GT 11 | Non-Canonical Peptide Non-Reactivity (165-C7C): GT 11 | Non-Canonical Peptide Non-Reactivity (165-D2C): GT 11 | Non-Canonical Peptide Non-Reactivity (165-D3C): GT 11 | Non-Canonical Peptide Non-Reactivity (165-F3C): GT 11 | Non-Canonical Peptide Non-Reactivity (165-F6C): GT 11 | Non-Canonical Peptide Non-Reactivity (165-U3C (so in the source)): GT 11 | Proliferation (luminescent ATP assay), Mean [2]: 2664 | Proliferation (luminescent ATP assay), Mean [3]: 2804 | Proliferation (luminescent ATP assay), Mean [4]: 2311 | Proliferation (luminescent ATP assay), Mean [5]: 346 RLU | Proliferation (luminescent ATP assay), Mean [6]: 265 RLU | Proliferation (luminescent ATP assay), Mean [7]: 255 RLU | Proliferation (luminescent ATP assay), Mean [1]: 234 RLU | Proliferation (luminescent ATP assay), Mean [8]: 2108 | Proliferation (luminescent ATP assay), Mean [9]: 2152 | Proliferation (luminescent ATP assay), Mean [10]: 1652 | Proliferation (luminescent ATP assay), Mean [11]: 406 | Proliferation (luminescent ATP assay), Mean [12]: 426 | Proliferation (luminescent ATP assay), Mean [13]: 388 | Proliferation (luminescent ATP assay), Mean [14]: 303

poly (Lys-Tyr; 1:1) [LT 11]
Non-Canonical Peptide Reactivity (165-C4C): LT 11 | Non-Canonical Peptide Reactivity (165-C7C): LT 11 | proliferation response to non-canonical GA peptides (165-F3C (Day 77) and 165-C4C (Day 66), 0, 1, 3, 10 μg/mL): responded well | Non-Canonical Peptide Reactivity (165-F3C): LT 11 | Non-Canonical Peptide Non-Reactivity (165-F6C): LT 11 | Reactive T-Cell Line (Donor 3 COP lines, at least a 50% increase in proliferation relative to a control after stimulation with the non-canonical GA peptide): 165-C4C (Donor 3) and 165-C7C (Donor 3) and 165-F3C (Donor 3) | Nonreactive T-Cell Line (Donor 3 COP lines, stimulation with the non-canonical GA peptide): 165-F6C (Donor 3) | Proliferation (luminescent ATP assay), Mean [2]: 2430 | Proliferation (luminescent ATP assay), Mean [3]: 2701 | Proliferation (luminescent ATP assay), Mean [4]: 4129 | Proliferation (luminescent ATP assay), Mean [5]: 418 RLU | Proliferation (luminescent ATP assay), Mean [6]: 305 RLU | Proliferation (luminescent ATP assay), Mean [7]: 244 RLU | Proliferation (luminescent ATP assay), Mean [1]: 119 RLU | Proliferation (luminescent ATP assay), Mean [8]: 2144 | Proliferation (luminescent ATP assay), Mean [9]: 2605 | Proliferation (luminescent ATP assay), Mean [10]: 3608 | Proliferation (luminescent ATP assay), Mean [11]: 431 | Proliferation (luminescent ATP assay), Mean [12]: 518 | Proliferation (luminescent ATP assay), Mean [13]: 490 | Proliferation (luminescent ATP assay), Mean [14]: 736
